Experimental data published in patent publication US20110150767A1, “ALPHA-SUBSTITUTED AND ALPHA-UNSUBSTITUTED AROMATIC AMINO ACID DERIVATIVES AND COMPOSITIONS THEREOF FOR USE TO TREAT, DIAGNOSE, OR MONITOR A MEDICAL CONDITION” (priority 2009, published 2011).

Legend:
[1] = molecular target: T1, human L-type amino acid transporter 1 (LAT1; S2-hLAT1 cells) (Homo sapiens, UniProt Q01650); assay: Inhibition of L-[14C]leucine uptake in S2-LAT1 cells; assay type: cell-based; details: inhibition of 1.0 μM L-[14C]leucine uptake, 1.0 min, 37° C., NI = no inhibition at 100 μM
T1 construct: expressed in transfected cells; host or cells: S2 cells (S2-hLAT1 / S2-LAT1); mammalian cell line described in Morimoto et al., J Pharmacol Sci 2008, 108, 505-516
T1 sequence (Q01650 whole entry, one chain of several): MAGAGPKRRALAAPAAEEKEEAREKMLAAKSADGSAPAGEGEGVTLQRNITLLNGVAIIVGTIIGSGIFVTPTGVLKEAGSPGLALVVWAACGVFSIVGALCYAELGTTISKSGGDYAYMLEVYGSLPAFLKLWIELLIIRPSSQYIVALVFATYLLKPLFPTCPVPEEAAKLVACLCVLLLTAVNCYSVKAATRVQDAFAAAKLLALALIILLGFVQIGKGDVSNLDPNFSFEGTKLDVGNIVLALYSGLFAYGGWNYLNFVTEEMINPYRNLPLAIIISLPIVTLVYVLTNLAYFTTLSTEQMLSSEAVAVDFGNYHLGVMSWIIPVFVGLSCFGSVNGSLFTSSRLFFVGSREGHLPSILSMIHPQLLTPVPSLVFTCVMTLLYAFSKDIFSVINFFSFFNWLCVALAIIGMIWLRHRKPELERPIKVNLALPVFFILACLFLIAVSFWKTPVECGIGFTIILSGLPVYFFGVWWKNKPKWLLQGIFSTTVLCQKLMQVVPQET
Experimental: (§1) The establishment and characterization of mammalian cell lines expressing human L-type amino acid transporterss (i.e. S2-hLAT1 and S2-hLAT2) has been previously described (Morimoto et al., Journal of Pharmacological Sciences, 2008, 108, 505-516).
(§2) General test procedures are as follows: All test compounds were dissolved in dimethyl sulfoxide (DMSO) to prepare stock solutions at the concentrations of 0.05, 0.5, 5.0 and 50 mM; next, these stock solutions were used and diluted with uptake solution to make final test concentrations of 0.10, 1.00, 10.0 and 100 μM, respectively. Therefore, all compounds used for uptake experiment were in uptake solution containing 0.2% DMSO; experiments are performed in triplicate for each concentration. For control uptake, only DMSO was added into the uptake solution to a final concentration of 0.2%.
(§3) S2-LAT1 and S2-LAT2 cells were seeded (1.3×10^5 cells/well) into 24-well plates and cultured at 33° C. (5% CO2) for 2-3 days until confluent (90%-100% confluence). Uptake experiments were performed at 37° C. The culture medium was removed and washed 3 times with uptake solution (37° C.; Hank's Na^+ free buffer consisting of 125 mM choline chloride, 4.8 mM KCl, 1.3 mM CaCl2, 1.2 mM MgCl2, 25.0 mM HEPES, and 5.0 mM Tris, pH 7.4, supplemented with D-glucose (5.6 mM). The cells were equilibrated in uptake solution (300 μL; 37° C.) for 12 min. The equilibrated solution was removed and uptake solution containing radio-labeled compound (1.0 μM L-[^14C] Leucine) with or without test compound (300 μL) was added to the cells (1.0 min). The test solution was removed and the cells washed 3 times with ice-cold uptake solution. The cells are then solubilized with 0.1N NaOH (0.5 mL) and transferred to scintillation vials. Liquid scintillation fluid (3.0 mL; aquasol-2) was added, mixed and substrate accumulation was measured by counting radioactivity via liquid scintillation counting (LSC; LSC6100, Aloka, Tokyo). The uptake value and % of inhibition were calculated to afford IC50 values.

[2] = molecular target: T2, human L-type amino acid transporter 2 (LAT2; S2-hLAT2 cells) (Homo sapiens, UniProt Q9UHI5); assay: Inhibition of L-[14C]leucine uptake in S2-LAT2 cells; assay type: cell-based; details: inhibition of 1.0 μM L-[14C]leucine uptake, 1.0 min, 37° C., NI = no inhibition at 100 μM
T2 construct: expressed in transfected cells; host or cells: S2 cells (S2-hLAT2 / S2-LAT2); mammalian cell line described in Morimoto et al., J Pharmacol Sci 2008, 108, 505-516
T2 sequence (Q9UHI5 1-535): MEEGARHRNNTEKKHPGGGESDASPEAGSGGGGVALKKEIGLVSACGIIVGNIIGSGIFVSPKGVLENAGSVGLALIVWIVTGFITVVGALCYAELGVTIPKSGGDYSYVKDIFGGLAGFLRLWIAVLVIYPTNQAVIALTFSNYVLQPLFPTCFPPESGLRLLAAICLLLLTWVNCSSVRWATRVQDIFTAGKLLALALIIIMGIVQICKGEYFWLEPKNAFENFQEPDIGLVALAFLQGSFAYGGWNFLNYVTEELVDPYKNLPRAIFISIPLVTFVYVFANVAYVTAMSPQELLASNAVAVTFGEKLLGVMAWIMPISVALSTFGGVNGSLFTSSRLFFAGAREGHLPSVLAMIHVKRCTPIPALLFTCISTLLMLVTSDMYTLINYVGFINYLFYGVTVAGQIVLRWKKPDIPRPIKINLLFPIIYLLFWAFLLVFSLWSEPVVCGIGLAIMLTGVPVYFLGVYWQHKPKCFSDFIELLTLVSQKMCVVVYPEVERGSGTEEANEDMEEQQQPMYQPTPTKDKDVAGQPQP
T2 sequence (P08195 1-529 partner): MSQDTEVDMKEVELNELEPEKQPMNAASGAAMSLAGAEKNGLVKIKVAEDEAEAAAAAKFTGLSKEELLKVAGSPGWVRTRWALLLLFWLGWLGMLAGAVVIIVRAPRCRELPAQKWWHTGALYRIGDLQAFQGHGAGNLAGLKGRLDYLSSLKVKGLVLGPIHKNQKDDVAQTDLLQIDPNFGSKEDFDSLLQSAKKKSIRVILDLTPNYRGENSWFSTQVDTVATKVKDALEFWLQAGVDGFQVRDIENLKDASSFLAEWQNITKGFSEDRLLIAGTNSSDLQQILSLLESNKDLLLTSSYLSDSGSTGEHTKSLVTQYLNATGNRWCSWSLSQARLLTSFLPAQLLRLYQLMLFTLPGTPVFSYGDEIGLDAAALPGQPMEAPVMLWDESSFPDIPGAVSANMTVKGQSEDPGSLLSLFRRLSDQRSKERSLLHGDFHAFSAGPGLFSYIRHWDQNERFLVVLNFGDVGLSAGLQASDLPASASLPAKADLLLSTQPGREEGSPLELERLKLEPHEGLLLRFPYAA
Experimental: as §1, §2, §3

| SMILES | IC50 [1] | IC50 [2] |
| --- | --- | --- |
| COc1ccc(COc2c(Cl)cc(C[C@H](N)C(=O)O)cc2Cl)c(OC)c1OC [compound 136] | 8.1 µM | > 100 µM |
| COc1ccccc1CCOc1c(Br)cc(C[C@H](N)C(=O)O)cc1Br [compound 54] | 5.4 µM | > 100 µM |
| COc1ccc(COc2c(I)cc(C[C@H](N)C(=O)O)cc2I)c(OC)c1 [compound 41] | 5 µM | > 100 µM |
| COc1cccc(CCOc2c(Br)cc(C[C@H](N)C(=O)O)cc2Br)c1 [compound 53] | 6.3 µM | > 100 µM |
| COc1ccccc1COc1c(Cl)cc(CC(C)(N)C(=O)O)cc1Cl (racemic) [compound 148] | > 100 µM | > 100 µM |
| COc1cccc(COc2c(Cl)cc(C[C@H](N)C(=O)O)cc2Cl)c1OC [compound 132] | 28.2 µM | > 100 µM |
| COc1ccc(COc2c(I)cc(C[C@H](N)C(=O)O)cc2I)c(C)c1C [compound 44] | 7.7 µM | > 100 µM |
| N[C@@H](Cc1cc(Br)c(OCCc2ccc(C(F)(F)F)cc2)c(Br)c1)C(=O)O [compound 58] | 43.2 µM | > 100 µM |
| N[C@@H](Cc1cc(Br)c(OCCc2cccc(C(F)(F)F)c2)c(Br)c1)C(=O)O [compound 59] | 31.8 µM | > 100 µM |
| CCOc1cc(COc2c(Cl)cc(C[C@H](N)C(=O)O)cc2Cl)cc(OCC)c1OCC [compound 139] | 1.2 µM | > 100 µM |
| N[C@@H](Cc1cc(I)c(OCCc2ccc(OC(F)(F)F)cc2)c(I)c1)C(=O)O [compound 33] | > 100 µM | > 100 µM |
| CCOc1ccc(COc2c(Cl)cc(C[C@H](N)C(=O)O)cc2Cl)c(OCC)c1 [compound 140] | 2.2 µM | > 100 µM |
| COc1ccc(CCOc2c(Br)cc(C[C@H](N)C(=O)O)cc2Br)cc1 [compound 52] | 6.8 µM | > 100 µM |
| COc1cccc(COc2c(Cl)cc(CC(C)(N)C(=O)O)cc2Cl)c1OC (racemic) [compound 149] | > 100 µM | > 100 µM |
| COc1cc(Cl)ccc1COc1c(Cl)cc(C[C@H](N)C(=O)O)cc1Cl [compound 134] | 4.4 µM | > 100 µM |
| N[C@@H](Cc1cc(I)c(OCCc2ccc([N+](=O)[O-])cc2)c(I)c1)C(=O)O [compound 36] | 28.2 µM | > 100 µM |

| SMILES | IC50 [1] | IC50 [2] |
| --- | --- | --- |
| CC(N)(Cc1cc(Cl)c(OCc2ccc(C(F)(F)F)cc2)c(Cl)c1)C(=O)O (racemic) [compound 145] |  | > 100 µM |
| COc1ccc(COc2c(Cl)cc(C[C@H](N)C(=O)O)cc2Cl)cc1OC [compound 129] | 17.8 µM | > 100 µM |
| N[C@@H](Cc1cc(Cl)c(OCCc2ccccc2)c(Cl)c1)C(=O)O [compound 122] | 50.7 µM | > 100 µM |
| COc1cccc(COc2c(Cl)cc(CC(C)(N)C(=O)O)cc2Cl)c1 (racemic) [compound 147] | > 100 µM | > 100 µM |
| COc1cc(COc2c(I)cc(C[C@H](N)C(=O)O)cc2I)cc(OC)c1OC [compound 45] | 15 µM | > 100 µM |
| N[C@@H](Cc1cc(Br)c(OCCc2ccccc2C(F)(F)F)c(Br)c1)C(=O)O [compound 60] | > 100 µM | > 100 µM |
| N[C@@H](Cc1cc(I)c(OCc2ccc3c(c2)OCO3)c(I)c1)C(=O)O [compound 50] | 24.1 µM | > 100 µM |
| COc1ccc(COc2c(I)cc(C[C@H](N)C(=O)O)cc2I)c(OC)c1OC [compound 43] | 23.6 µM | > 100 µM |
| CCOc1ccc(COc2c(I)cc(C[C@H](N)C(=O)O)cc2I)cc1OCC [compound 49] | 5.5 µM | > 100 µM |
| COc1cccc(COc2c(Br)cc(C[C@H](N)C(=O)O)cc2Br)c1 [compound 56] | 67.1 µM | > 100 µM |
| COC(COc1c(I)cc(C[C@H](N)C(=O)O)cc1I)c1ccccc1 (stereo partly shown) [compound 35] | 8.8 µM | > 100 µM |
| COc1ccc(COc2c(Cl)cc(C[C@H](N)C(=O)O)cc2Cl)c(C)c1C [compound 137] | 3.5 µM | > 100 µM |
| CC(N)(Cc1cc(Cl)c(OCc2ccncc2)c(Cl)c1)C(=O)O (racemic) [compound 152] | > 100 µM | > 100 µM |
| CC(N)(Cc1cc(Cl)c(OCc2ccc3c(c2)OCO3)c(Cl)c1)C(=O)O (racemic) [compound 144] | > 100 µM | > 100 µM |
| COc1ccc(COc2c(Cl)cc(CC(C)(N)C(=O)O)cc2Cl)cc1OC (racemic) [compound 150] | > 100 µM | > 100 µM |
| CCOc1ccc(COc2c(I)cc(C[C@H](N)C(=O)O)cc2I)c(OCC)c1 [compound 48] | 17.2 µM | > 100 µM |

Second part, the compound after the results:

| IC50 [1] | IC50 [2] | SMILES |
| --- | --- | --- |
| > 100 µM | > 100 µM | COc1cc(COc2c(Cl)cc(CC(C)(N)C(=O)O)cc2Cl)cc(OC)c1OC (racemic) [compound 151] |
| 17.7 µM | > 100 µM | COc1cc(Cl)ccc1COc1c(I)cc(C[C@H](N)C(=O)O)cc1I [compound 42] |
| 4.2 µM | 27.3 µM | N[C@@H](Cc1cc(Cl)c(OCc2ccc3c(c2)OCO3)c(Cl)c1)C(=O)O [compound 130] |
| 10.2 µM | > 100 µM | COc1ccccc1COc1c(Br)cc(C[C@H](N)C(=O)O)cc1Br [compound 55] |
| 29.2 µM | > 100 µM | COc1cc(OC)c(OC)cc1COc1c(Cl)cc(C[C@H](N)C(=O)O)cc1Cl [compound 138] |
| 11.9 µM | 47.9 µM | N[C@@H](Cc1cc(I)c(OCC(=O)c2ccccc2)c(I)c1)C(=O)O [compound 34] |
| 2.9 µM | 44.9 µM | CCOc1ccc(COc2c(Cl)cc(C[C@H](N)C(=O)O)cc2Cl)cc1OCC [compound 141] |
| 10.4 µM | 29.5 µM | N[C@@H](Cc1cc(I)c(OCc2ccc(Cl)cc2)c(I)c1)C(=O)O [compound 51] |
| 11.5 µM | 8.2 µM | N[C@@H](Cc1cc(I)c(OCc2ccc([N+](=O)[O-])cc2)c(I)c1)C(=O)O [compound 37] |
| 8.4 µM | 126 µM | COc1ccc(COc2c(Cl)cc(C[C@H](N)C(=O)O)cc2Cl)cc1[N+](=O)[O-] [compound 131] |
| 0.8 µM | 5.5 µM | COc1ccc(COc2c(Cl)cc(C[C@H](N)C(=O)O)cc2Cl)c(OC)c1 [compound 133] |
| 2.4 µM | 32.5 µM | COc1ccc(COc2c(Cl)cc(C[C@H](N)C(=O)O)cc2Cl)c(OC)n1 [compound 135] |
| 6.7 µM | 16.4 µM | COc1ccc(COc2c(Cl)cc(CC(C)(N)C(=O)O)cc2Cl)cc1 (racemic) [compound 146] |
| 16.4 µM | 86.5 µM | COc1ccc(COc2c(Br)cc(C[C@H](N)C(=O)O)cc2Br)cc1 [compound 57] |
